From patent US20190322676A1, “CERAMIDE GALACTOSYLTRANSFERASE INHIBITORS FOR THE TREATMENT OF DISEASE” (BioMarin Pharmaceutical Inc., priority 2016, published 2019)
Counter-ions that a name gives are not always drawn.

Legend:
Assay type in all cases: biochemical
[1] = target: T1, human CGT (ceramide galactosyltransferase), CHO/CGT lysate (Homo sapiens, UniProt Q16880); experiment: CGT enzyme assay, LC-MS/MS readout (Table 1 ranges without asterisk); conditions: LC-MS/MS method (range without asterisk)
T1 construct: Full-length human CGT cDNA was cloned into the BamH1/Xho1 site of pcDNA3.1 (+); expressed in transfected cells; host or cells: Chinese hamster ovary (CHO) cells; lysate prepared with M-PER
T1 sequence (Q16880 21-541): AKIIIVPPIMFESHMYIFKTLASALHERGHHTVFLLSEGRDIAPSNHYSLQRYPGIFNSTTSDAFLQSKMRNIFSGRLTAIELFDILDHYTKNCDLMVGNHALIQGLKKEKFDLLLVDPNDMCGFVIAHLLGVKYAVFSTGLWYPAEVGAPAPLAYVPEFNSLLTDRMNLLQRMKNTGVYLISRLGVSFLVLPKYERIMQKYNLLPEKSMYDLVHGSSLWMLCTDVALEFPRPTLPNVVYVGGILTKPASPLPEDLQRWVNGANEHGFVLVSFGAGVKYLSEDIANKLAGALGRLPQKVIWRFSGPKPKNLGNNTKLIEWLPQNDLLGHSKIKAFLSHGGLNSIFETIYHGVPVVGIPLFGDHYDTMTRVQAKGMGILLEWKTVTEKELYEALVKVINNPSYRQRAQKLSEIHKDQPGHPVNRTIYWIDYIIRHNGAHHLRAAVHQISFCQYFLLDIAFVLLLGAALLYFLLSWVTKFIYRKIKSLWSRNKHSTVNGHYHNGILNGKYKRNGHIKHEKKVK
Method: Full-length human CGT cDNA was cloned into the BamH1/Xho1 site of pcDNA3.1 (+) mammalian expression vector (V90-20, Invitrogen, Carlsbad, Calif.) and the plasmid was transfected into Chinese hamster ovary (CHO) cells. Lysate was prepared using M-PER (Mammalian Protein Extraction Reagent, ThermoFisher Scientific, Grand Island, N.Y.) in the presence of a protease inhibitor cocktail (P8340, Sigma, Saint Louis, Mo.). Each 100 mm dish (100% confluent, approximately 1×10^7 cells) was lysed with 250 μL of M-PER containing protease inhibitors. Protein concentration was determined using a Pierce BCA protein assay kit (ThermoFisher Scientific). Four micrograms of CHO/CGT lysate was incubated with various concentrations of a compound (0.001 μM-50 μM) in 10 mM HEPES (pH 7.2) containing 35 μM dioleoylphosphatidylcholine, 5 mM MgCl2, 5 mM MnCl2, 1% BSA, 15 mM KCl, 1 mM EGTA, 8 mM CHAPS, 10 μM C6-NBD-dihydro-ceramide and 17.5 μM UDP-galactose in a final reaction volume of 20 μL at 37° C. for 1 hour. The final concentration of DMSO was 0.5% in both compound-treated and mock-treated samples. Tween 80 (0.01%) was optionally added to the reaction mixture to help solubilize the compounds. Each individual reaction was diluted with 80 μL of methanol:acetronitrile (1:3) containing 5 μM N-docdecanoyl-NBD-galactosylceramide (internal standard) to stop the reaction. 200 μL H2O:acetonitile (1:1) was added to precipitate the protein. After sufficient mixing, the plates were centrifuged at 2469 g for 38 minutes, 200 μL of supernatant was transferred to a LC/MS 96-deep well plate and a second spin was performed at 2469 g for 10 minutes. The final supernatant was injected in triplicate for RapidFire/MS/MS analysis.
An alternative LC-MS/MS based method was also used. For the LC-MS/MS readout, the CGT assay was identical to the one described above except for the following: […] was used as the CGT enzyme source, C12:0 (2R—OH) ceramide was used as the ceramide substrate and 0.3 μM Cl2 ceramide was used as the internal standard. Tween 80 was not present in the reaction mixture. The final supernatant was injected for LC-MS/MS analysis.
Quantitative analysis using the LC-MS/MS method: The quantitative analysis of C12:0 (2R—OH) ceramide and C12:0 (2R—OH) galactosylceramide by LC-MS/MS was performed on a Shimadzu ultra-fast liquid chromatography (Shimadzu, Japan) coupled with API 4000 mass spectrometer (Applied Biosystems, Concord, Ontario, Canada). Analyst 1.5 software packages (Applied Biosystems) were used to control the LC-MS/MS system, as well as for data acquisition and processing. 10 μL of sample was loaded onto a Luna C18 column (50 mm×2.0 mm, I.D. 3 μm, 100A) (Phenomenex, USA) for chromatographic separation. Mobile phase A consisted of HPLC grade water with 0.1% formic acid (v/v) and mobile phase B consisted of acetonitrile supplemented with 0.1% formic acid (v/v). The separation was achieved using the following gradient program at a flow rate of 0.8 mL/min: the initial mobile phase was 70% B, which was increased in a linear fashion to 95% B in 1.50 min, and then maintained at 95% B until 3.50 min. The mobile phase was then reset to 70% B within 0.01 min, and maintained until 4.50 min. The total run time was 4.50 min. The MS/MS detection was performed in ESI positive mode. The mass transition selected for quantification was m/z 498.5-264.3 for C12:0 (2R—OH) ceramide under the collision energy of 38.8 V, and the mass transition of C12:0 (2R—OH) galactosylceramide was m/z 660.6-264.5 under the collision energy of 51 V. The mass transition of Cl2 ceramide which was used as internal standard was m/z 482.4-264.3 under the collision energy of 33V. Compound IC50 values were calculated using a protocol identical to the one described for the RapidFire method (see Table 1, where data ranges without an asterix correspond to analysis using the LC-MS/MS method).
Using the above CGT enzyme and CGT cellular assays, the compounds of Table 1 were tested. […]

[2] = target: T1, human CGT (ceramide galactosyltransferase), CHO/CGT lysate; experiment: CGT enzyme assay, RapidFire/MS/MS readout with 0.01% Tween added (Table 1 ranges with two asterisks **); conditions: CGT enzyme assay, RapidFire/MS/MS method with 0.01% Tween added (range with two asterisks **)
Outline: (§1)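 IC50s come from variable-slope dose-response fits of internal-standard-normalized C6-NBD-dihydro-galactosylceramide, measured by RapidFire/MS/MS (ESI negative). Reactions: 1 h, 37 °C, human CGT-expressing CHO lysate (4 μg), 0.001–50 μM compound, 10 μM NBD-dihydro-ceramide, 17.5 μM UDP-galactose, 0.5% DMSO, pH 7.2; 0.01% Tween 80 added for ** values.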

[3] = target: T1, human CGT (ceramide galactosyltransferase), CHO/CGT lysate; experiment: CGT enzyme assay, RapidFire/MS/MS readout (Table 1 ranges with one asterisk *); conditions: RapidFire method (range with one asterisk *)
Outline: as §1

SMILES | IC50 [1] [µM] | IC50 [2] [µM] | IC50 [3] [µM]
CC(C)Oc1ccc2cc(S(=O)(=O)N[C@@H](C(=O)N3C4CCC3CC(N)C4)C(F)(F)c3ccc(Br)cc3)ccc2c1 (stereo partly drawn) [Compound 1-2, N-((2S)-3-(3-amino-8-azabicyclo[3.2.1]octan-8-yl)-1-(4-bromophenyl)-1,1-difluoro-3-oxopropan-2-yl)-6-isopropoxynaphthalene-2-sulfonamide] | 10 to 30 |  | 
CCC(CC)COc1ccc(S(=O)(=O)N[C@H](C(=O)N2C3CCC2CC(N)C3)C(F)(F)c2ccc(Br)cc2)cc1 (stereo partly drawn) [Compound 2-1, N-((2R)-3-(3-amino-8-azabicyclo[3.2.1]octan-8-yl)-1-(4-bromophenyl)-1,1-difluoro-3-oxopropan-2-yl)-4-(2-ethylbutoxy)benzenesulfonamide] | 1 to 10 |  | 
CCC(CC)COc1ccc(S(=O)(=O)N[C@@H](C(=O)N2C3CCC2CC(N)C3)C(F)(F)c2ccc(Br)cc2)cc1 (stereo partly drawn) [Compound 2-2, N-((2S)-3-(3-amino-8-azabicyclo[3.2.1]octan-8-yl)-1-(4-bromophenyl)-1,1-difluoro-3-oxopropan-2-yl)-4-(2-ethylbutoxy)benzenesulfonamide] | 30 to 100 |  | 
NC1CC2CCC(C1)N2C(=O)C(NS(=O)(=O)c1ccc(-c2ccc(F)cc2)cc1)C(F)(F)c1ccc(Br)cc1 (stereo not drawn) [Compound 3, N-(3-(3-amino-8-azabicyclo[3.2.1]octan-8-yl)-1-(4-bromophenyl)-1,1-difluoro-3-oxopropan-2-yl)-4′-fluoro-[1,1′-biphenyl]-4-sulfonamide] | 10 to 30 |  | 
NC1CC2CCC(C1)N2C(=O)[C@H](NS(=O)(=O)c1ccc(-c2ccc(F)cc2)cc1)C(F)(F)c1ccc(Br)cc1 (stereo partly drawn) [Compound 3-2, N-((2S)-3-(3-amino-8-azabicyclo[3.2.1]octan-8-yl)-1-(4-bromophenyl)-1,1-difluoro-3-oxopropan-2-yl)-4′-fluoro-[1,1′-biphenyl]-4-sulfonamide] | 30 to 100 |  | 
CC(C)Oc1ccc2cc(CCS(=O)(=O)NC(C(=O)N3C4CCC3CC(N)C4)C(F)(F)c3ccc(Br)cc3)ccc2c1 (stereo not drawn) [Compound 4, N-(3-(3-amino-8-azabicyclo[3.2.1]octan-8-yl)-1-(4-bromophenyl)-1,1-difluoro-3-oxopropan-2-yl)-2-(6-isopropoxynaphthalen-2-yl)ethanesulfonamide trifluoroacetate] | 10 to 30 |  | 
NC1CC2CCC(C1)N2C(=O)C(NS(=O)(=O)c1ccc2cc(OC3CCCC3)ccc2c1)C(F)(F)c1ccc(Br)cc1 (stereo not drawn) [Compound 5, N-(3-(3-amino-8-azabicyclo[3.2.1]octan-8-yl)-1-(4-bromophenyl)-1,1-difluoro-3-oxopropan-2-yl)-6-(cyclopentyloxy)naphthalene-2-sulfonamide trifluoroacetate] | 1 to 10 |  | 
NC1CC2CCC(C1)N2C(=O)[C@@H](NS(=O)(=O)c1ccc2cc(OC3CCCC3)ccc2c1)C(F)(F)c1ccc(-c2ccc(Cl)cc2)cc1 (stereo partly drawn) [Compound 48-1, N-((2R)-3-(3-amino-8-azabicyclo[3.2.1]octan-8-yl)-1-(4′-chloro-[1,1′-biphenyl]-4-yl)-1,1-difluoro-3-oxopropan-2-yl)-6-(cyclopentyloxy)naphthalene-2-sulfonamide trifluoroacetate] |  | < 1 | < 1
NC1CC2CCC(C1)N2C(=O)[C@H](NS(=O)(=O)c1ccc2cc(OC3CCCC3)ccc2c1)C(F)(F)c1ccc(-c2ccc(Cl)cc2)cc1 (stereo partly drawn) [Compound 48-2, N-((2S)-3-(3-amino-8-azabicyclo[3.2.1]octan-8-yl)-1-(4′-chloro-[1,1′-biphenyl]-4-yl)-1,1-difluoro-3-oxopropan-2-yl)-6-(cyclopentyloxy)naphthalene-2-sulfonamide trifluoroacetate] |  | 1 to 10 | 1 to 10
NC1CCN(C(=O)[C@@H](NS(=O)(=O)c2ccc3cc(OC4CCCC4)ccc3c2)C(F)(F)c2ccc(-c3ccc(Cl)cc3)cc2)CC1 [Compound 91-1, (R)—N-(3-(4-aminopiperidin-1-yl)-1-(4′-chloro-[1,1′-biphenyl]-4-yl)-1,1-difluoro-3-oxopropan-2-yl)-6-(cyclopentyloxy)naphthalene-2-sulfonamide trifluoroacetate] |  | < 1 | < 1
NC1CCN(C(=O)[C@H](NS(=O)(=O)c2ccc3cc(OC4CCCC4)ccc3c2)C(F)(F)c2ccc(-c3ccc(Cl)cc3)cc2)CC1 [Compound 91-2, (S)—N-(3-(4-aminopiperidin-1-yl)-1-(4′-chloro-[1,1′-biphenyl]-4-yl)-1,1-difluoro-3-oxopropan-2-yl)-6-(cyclopentyloxy)naphthalene-2-sulfonamide trifluoroacetate] |  | 1 to 10 | 1 to 10
NC1CCN(C(=O)[C@@H](NS(=O)(=O)c2ccc(OCC3CCCCC3)cc2)C(F)(F)c2ccc(-c3ccc(Cl)cc3)cc2)CC1 [Compound 96-1, (R)—N-(3-(4-aminopiperidin-1-yl)-1-(4′-chloro-[1,1′-biphenyl]-4-yl)-1,1-difluoro-3-oxopropan-2-yl)-4-(cyclohexylmethoxy)benzenesulfonamide trifluoroacetate] |  | 1 to 10 | 1 to 10
NC1CCN(C(=O)[C@H](NS(=O)(=O)c2ccc(OCC3CCCCC3)cc2)C(F)(F)c2ccc(-c3ccc(Cl)cc3)cc2)CC1 [Compound 96-2, (S)—N-(3-(4-aminopiperidin-1-yl)-1-(4′-chloro-[1,1′-biphenyl]-4-yl)-1,1-difluoro-3-oxopropan-2-yl)-4-(cyclohexylmethoxy) benzenesulfonamide trifluoroacetate] |  | 30 to 100 | 30 to 100
NC1CC2CCC(C1)N2C(=O)[C@@H](NC(=O)[C@@H](O)c1ccc2cc(OC3CCCC3)ccc2c1)C(F)(F)c1ccc(-c2ccc(Cl)cc2)cc1 (stereo partly drawn) [Compound 136-3, (2S)—N-((2R)-3-(3-amino-8-azabicyclo[3.2.1]octan-8-yl)-1-(4′-chloro-[1,1′-biphenyl]-4-yl)-1,1-difluoro-3-oxopropan-2-yl)-2-(6-(cyclopentyloxy)naphthalen-2-yl)-2-hydroxyacetamide trifluoroacetate] |  | 1 to 10 | 1 to 10
